Columns and labels:
[1] = test system: human HepG2 hepatoblastoma cells; test: Growth inhibition, crystal violet staining, HepG2; format: cell-based; conditions: 48 h incubation, mean ± SD, read-out: Anti-proliferative activity IC50, HepG2
Description: (§1) The well-differentiated p53 wild-type human hepatoblastoma cell line HepG2 (ATCC# 8065) and the highly differentiated p53 mutated human hepatocellular carcinoma cell line Huh-7 (JCRB#0403) were grown in RPMI 1640 medium supplemented with 10% fetal bovine serum and 100 U/mL penicillin and […] streptomycin. Murine AML-12 hepatocytes were obtained from ATCC (CRL-2254) and grown in DMEM/F-12 Glutamax medium supplemented with 10% fetal bovine serum, 10 µg/mL insulin, 5.5 µg/mL transferrin, 5 ng/mL selenium (Gibco ITS-G 100X) and 40 ng/mL dexamethasone (Sigma-Aldrich). All cell lines were incubated in a 37 °C, 5% CO2, 95% humidified atmosphere.
(§2) Treatment-induced changes in cell number were evaluated by crystal violet staining, as previously described. Briefly, 1.500 cells per well were seeded in 96-well plates for 24 h at 37 °C, 5% CO2. For the experiments with HepG2 and Huh-7 cell lines, cells were incubated with rising concentrations (0–20 µM) of the new compounds (1a–1o) for 48 h. AML12-cells were treated with compounds 1a, 1b, 1c, 1e, 1i and 1j for 48 h and at concentrations ranging from 0.5–64 µM. Thereafter, the cells were fixed with 1% glutaraldehyde and stained with 0.1% crystal violet (Sigma-Aldrich). The unbound dye was removed by rinsing with water. Bound crystal violet was solubilized with 0.2% Triton X-100 (Sigma-Aldrich). Light extinction of crystal violet, which increases linearly with cell number, was analyzed at 570 nm using an ELISA-Reader (Dynex Technologies, Denkendorf, Germany). All experiments were carried out in duplicate or triplicate.

human Huh-7 HCC cells = test: Growth inhibition, crystal violet staining, Huh-7; format: cell-based; conditions: 48 h incubation, mean ± SD, read-out: Anti-proliferative activity IC50, Huh-7
Description: as §1, §2

[2] = test system: non-malignant murine AML-12 hepatocytes; test: Growth inhibition, crystal violet staining, AML-12; format: cell-based; conditions: for IC50 against AML-12 hepatocytes relative to hepatoma cells: AML-12 vs hepatoma cells (HepG2, Huh-7), 48 h; for IC50: Mus musculus, AML12, 48 h incubation, mean ± SD, read-out: Anti-proliferative activity IC50, AML-12
Description: as §1, §2

HepG2 cells [3] = test: Colony-formation assay; format: cell-based, human; conditions: 1, 5, 10 µM, 14 days
Description: HepG2 cells were seeded in 6-well plates at a density of 300 cells/well and allowed to attach overnight. […] Then, the plates were washed twice with PBS, fixed with 4% formaldehyde for 1 h, and stained with 0.5% crystal violet for 3 min. Excessive crystal violet was washed out and the colonies were counted under the microscope. A colony was defined as a cell aggregate with 50 or more cells. Representative images were taken with a kappa digital camera system (Kappa Optronics GmbH, Germany). A total of n = 3 experiments were performed, and significance was tested by one-way ANOVA assays.

HepG2 cells [4] = test: LDH release assay (unspecific cytotoxicity); format: cell-based, human; conditions: HepG2, 0.5 and 10 µM, 12 or 24 h
Description: Unspecific cytotoxicity induced by treatment with 0.5 µM and 10 µM of 1a, 1b, 1c and sorafenib (LC Laboratories, Woburn, MA, USA) was determined by measuring the release of lactate dehydrogenase (LDH) from HepG2 cells into the supernatant after 12 and 24 h (Cytotoxicity Detection KitPLUS LDH, Roche Diagnostics GmbH, Mannheim, Germany). The supernatant of treated samples was collected, and adherent non-treated cells were lysed with 2% Triton X-100 for 10 min to determine the maximum LDH release. All samples were mixed with catalyst and dye solution for 30 min, resulting in the formation of formazan dye proportional to LDH enzyme activity. The absorbance was measured at 490/630 nm using an ELISA reader (Dynex Technologies, Denkendorf, Germany) and cytotoxicity was determined by subtracting the percentage of LDH release under control conditions of those from treated samples. Experiments were performed in duplicate and data are given as mean percentage changes ± SD as compared to controls of n = 3 experiments.

[5] = test system: caspase-3 activity of HepG2 cells; test: Apoptosis-specific caspase-3 activity; format: cell-based, human; conditions: 24 h; for caspase-3 activity (in words): HepG2, 1 and 10 µM
Description: Changes in caspase-3 activity were measured by the cleavage of the fluorogenic substrate AC-DEVD-AMC (EMD Millipore, Billerica, MA, USA), as described previously. After 24 h of incubation with 1a, 1b, 1c, 1e and sorafenib (1 and 10 µM) the cells were harvested and lysed with lysis buffer. Subsequently, the lysates were incubated for 1 h at 37 °C with a substrate solution containing 20 μg/mL AC-DEVD-AMC, 20 mM HEPES, 10% glycerol and 2 mM DTT at pH 7.5. Substrate cleavage was measured fluorometrically using a Varioskan Flash Fluorometer (Thermo Fisher Scientific, Waltham, MA, USA; filter sets: ex 360/40 nm, em 460/10 nm). n = 3 independent measurements were performed in triplicate, and data are given as the mean percentage increase ± SD above control, which was set 100%.

CLK1 = molecular target: T1, CLK1 (Homo sapiens, UniProt P49759); test: Enzymatic kinase assay (Eurofins KinaseProfiler); format: biochemical; conditions: 10 µM compound, cell-free
T1 construct: purchased Eurofins KinaseProfiler service (Eurofins, France)
T1 sequence (P49759 whole entry): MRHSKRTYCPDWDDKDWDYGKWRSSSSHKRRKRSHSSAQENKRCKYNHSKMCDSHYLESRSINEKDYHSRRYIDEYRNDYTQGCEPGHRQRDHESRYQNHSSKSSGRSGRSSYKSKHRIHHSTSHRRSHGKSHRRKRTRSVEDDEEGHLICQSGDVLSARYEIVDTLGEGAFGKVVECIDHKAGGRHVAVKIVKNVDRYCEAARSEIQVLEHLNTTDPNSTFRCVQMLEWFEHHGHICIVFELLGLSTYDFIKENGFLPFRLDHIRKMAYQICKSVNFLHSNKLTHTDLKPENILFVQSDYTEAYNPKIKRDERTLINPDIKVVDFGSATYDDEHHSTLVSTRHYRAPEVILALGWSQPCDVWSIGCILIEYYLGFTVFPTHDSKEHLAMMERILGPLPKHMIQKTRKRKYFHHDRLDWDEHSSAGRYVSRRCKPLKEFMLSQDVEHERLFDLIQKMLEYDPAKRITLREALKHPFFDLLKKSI
Description: (§3) The kinase inhibiting potency of compound 1a, 1b and 1c (10 µM) was screened in a cell-free kinase assay, which consisted of a custom panel of 43 human protein kinases for 1c (listed in Figure 5A), as well as a subpanel of six kinases for 1a and 1b (Figure 5B). The initial panel was chosen to screen the lead compound 1c based on the union of two strategies. A total of 29 kinases were selected based on the correlated results of three in silico target prediction methods including structure- as well as ligand-based techniques and 20 kinases because of their relevance for HCC (note that six kinases were part of both strategies).
(§4) The assay was performed by Eurofins KinaseProfilerTM service (Eurofins, France) and the determination of enzymatic activity was assessed as previously described. Additionally, an IC50 determination of compound 1c against the VEGFR-2 was performed with a concentration range of 0.003 to 30 µM.

VEGFR-2 (KDR) = molecular target: T2, VEGFR-2 (KDR) (Homo sapiens, UniProt P35968); test: Enzymatic kinase assay (Eurofins KinaseProfiler); format: biochemical; conditions: 10 µM compound, cell-free
T2 construct: purchased Eurofins KinaseProfiler service (Eurofins, France)
T2 sequence (P35968 20-1356): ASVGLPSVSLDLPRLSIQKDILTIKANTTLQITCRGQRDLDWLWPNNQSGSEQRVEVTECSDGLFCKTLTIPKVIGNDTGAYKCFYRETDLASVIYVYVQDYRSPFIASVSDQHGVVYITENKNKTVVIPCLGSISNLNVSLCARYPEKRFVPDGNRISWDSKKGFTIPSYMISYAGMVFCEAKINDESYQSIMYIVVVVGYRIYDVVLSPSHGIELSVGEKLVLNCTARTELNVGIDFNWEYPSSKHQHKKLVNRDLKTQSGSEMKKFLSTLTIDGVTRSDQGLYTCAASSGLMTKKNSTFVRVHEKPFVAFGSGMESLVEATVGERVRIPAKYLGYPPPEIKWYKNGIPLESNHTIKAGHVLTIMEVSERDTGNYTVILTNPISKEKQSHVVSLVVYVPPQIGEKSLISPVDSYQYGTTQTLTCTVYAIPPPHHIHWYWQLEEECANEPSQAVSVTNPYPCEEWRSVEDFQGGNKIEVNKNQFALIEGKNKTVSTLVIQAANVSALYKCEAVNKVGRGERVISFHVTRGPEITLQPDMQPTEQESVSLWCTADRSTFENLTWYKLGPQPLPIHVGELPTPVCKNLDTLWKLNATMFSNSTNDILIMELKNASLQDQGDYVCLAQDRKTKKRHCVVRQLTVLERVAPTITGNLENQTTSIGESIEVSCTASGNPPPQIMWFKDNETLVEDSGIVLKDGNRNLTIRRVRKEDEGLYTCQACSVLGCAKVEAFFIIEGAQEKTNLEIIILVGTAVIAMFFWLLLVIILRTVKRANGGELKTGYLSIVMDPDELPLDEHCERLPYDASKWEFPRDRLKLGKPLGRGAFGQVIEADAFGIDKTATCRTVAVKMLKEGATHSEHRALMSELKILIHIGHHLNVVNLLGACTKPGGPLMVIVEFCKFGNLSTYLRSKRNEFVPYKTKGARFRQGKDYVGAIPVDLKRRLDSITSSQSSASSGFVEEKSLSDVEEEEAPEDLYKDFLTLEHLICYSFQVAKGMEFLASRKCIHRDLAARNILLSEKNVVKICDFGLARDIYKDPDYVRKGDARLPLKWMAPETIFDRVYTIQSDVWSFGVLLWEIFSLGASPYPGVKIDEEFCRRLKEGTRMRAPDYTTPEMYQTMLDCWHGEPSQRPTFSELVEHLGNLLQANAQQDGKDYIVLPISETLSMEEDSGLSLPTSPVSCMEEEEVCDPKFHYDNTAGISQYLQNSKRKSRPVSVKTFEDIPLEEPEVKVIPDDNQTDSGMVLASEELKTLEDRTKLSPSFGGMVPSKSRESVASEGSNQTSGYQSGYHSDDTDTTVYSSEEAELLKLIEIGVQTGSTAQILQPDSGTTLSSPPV
Description: as §3, §4

[6] = test system: HepG2-tumors grown on membranes of fertilized chicken eggs; test: Chorioallantoic membrane (CAM) assay; format: in vivo; conditions: for tumor reduction vs PBS-treated controls (in words): topical treatment 72 h, 1b 0–10 µM, 1c 0–2.5 µM, sorafenib 10 µM
Description: The chorioallantoic membrane (CAM) assay was performed as described previously. Fertilized chicken eggs (Gallus gallus) were obtained from commercial sources (Valo GmbH, Germany) and incubated in a humid environment at 38 °C. On day 3 of the egg development, a window was cut in the eggshell to access the developing vascular network of the CAM. At day 10 of chicken embryo development, a sterile silicon ring (10 mm diameter) was placed on the CAM and tumor plugs of 3 × 10^6 HepG2 cells in 20 µL Matrigel (BD Biosciences) with reduced growth factors were placed inside the silicon ring. After 24 h at 38 °C in an incubator, the tumor plaques attached and connected to the (tumor-)feeding CAM microvasculature. Then, the tumor plaques were topically treated with either PBS (negative control) or PBS containing rising concentrations of 1b (0–10 µM), 1c (0–2.5 µM) or sorafenib (10 μM) for 3 days. Tumor growth and viability of the embryo were controlled daily by stereo microscopy. After 72 h of treatment, the tumors were recovered for weighing and pictures were taken using a stereomicroscope equipped with a Kappa digital camera system (Kappa Optronics GmbH, Germany). For data analysis, the tumor weight of 1c-treated and untreated control tumors was determined and the mean weight of treated vs. untreated tumors of 11 eggs for each condition was calculated. Statistical significance evaluated by one-way ANOVA tests.

Pim-1 = conditions: cited from earlier work

SMILES | IC50 [1] | IC50 (human Huh-7 HCC cells) | IC50 [2] | further results
COc1ccc(C=C(C#N)c2cccs2)cc1 [Compound 1a] | 1.46 ± 0.21 µM | 1.2 ± 0.42 µM | 6.79 ± 0.32 µM | IC50 against AML-12 hepatocytes relative to hepatoma cells [2]: up to 10 fold; effect on HepG2 colony formation (in words) (HepG2 cells [3]): significantly inhibited HepG2 colony formation; LDH release / unspecific cytotoxicity (in words) (HepG2 cells [4]): do not exert considerable unspecific cytotoxicity; caspase-3 activity (in words) [5]: dose-dependently induced caspase-3 activity; inhibition at 10 µM (CLK1): 68%; inhibition of VEGFR-2 (KDR) (VEGFR-2 (KDR)): lacks any activity
CN(C)c1ccc(C=C(C#N)c2cccs2)cc1 [Compound 1b] | 0.72 ± 0.09 µM | 0.67 ± 0.13 µM | 2.72 ± 0.78 µM | IC50 against AML-12 hepatocytes relative to hepatoma cells [2]: up to 10 fold; effect on HepG2 colony formation (in words) (HepG2 cells [3]): significantly inhibited HepG2 colony formation; tumor reduction vs PBS-treated controls (in words) [6]: pronounced tumor reductions; tolerability, mortality and development of chicken embryos ([6]; treated vs untreated eggs): well tolerated; LDH release / unspecific cytotoxicity (in words) (HepG2 cells [4]): do not exert considerable unspecific cytotoxicity; caspase-3 activity compared with the other compounds (in words) ([5]; HepG2, 10 µM): comparably stronger increase in caspase-3 activity than the other compounds; caspase-3 activity (in words) [5]: dose-dependently induced caspase-3 activity; inhibition at 10 µM (VEGFR-2 (KDR)): 86%
COc1cc(/C=C(\C#N)c2cccs2)ccc1O [Compound 1d] | > 20 µM | > 20 µM |  | 
COc1ccc(C=C(C#N)c2cccs2)cc1C [Compound 1e, 2-[1-Cyano-2-(3-methyl-4-methoxyphenyl)-(E)-ethenyl)]-thiophene] | 1.3 ± 0.17 µM | 1.85 ± 0.21 µM | 14.8 ± 2.39 µM | IC50 against AML-12 hepatocytes relative to hepatoma cells [2]: up to 10 fold; effect on HepG2 colony formation (in words) (HepG2 cells [3]): significantly inhibited HepG2 colony formation; caspase-3 activity (in words) [5]: dose-dependently induced caspase-3 activity
COc1cc(/C=C(\C#N)c2cccs2)ccc1-c1ccccc1Cl [Compound 1f] | > 20 µM | > 20 µM |  | 
COCCOc1cc(/C=C(\C#N)c2cccs2)ccc1OC [Compound 1g, 2-[1-Cyano-2-[4-Methoxy-3-(2-methoxyethoxy)phenyl]-(E)-ethenyl}-thiophene] | > 20 µM | > 20 µM |  | 
COCCOc1ccc(/C=C(\C#N)c2cccs2)cc1OCCOC [Compound 1h, 2-{1-Cyano-2-[3,4-bis(2-methoxyethoxy)phenyl]-(E)-ethenyl}-thiophene] | > 20 µM | > 20 µM |  | 
CN1CCN(c2ccc(/C=C(\C#N)c3cccs3)cc2)CC1 [Compound 1i, 2-[1-Cyano-2-(4-N-methylpiperazin-1-ylphenyl)-(E)-ethenyl]-thiophene] | 9.3 ± 0.82 µM | 11.8 ± 0.56 µM | 20.5 ± 1.25 µM | 
COc1ccc(/C=C(\C#N)c2cccs2)cc1F [Compound 1j, 2-[1-Cyano-2-(3-fluoro-4-methoxyphenyl)-(E)-ethenyl]-thiophene] | 4.9 ± 1.54 µM | 5.7 ± 1.2 µM | 9.42 ± 0.91 µM | 
COCCOc1ccc(/C=C(\C#N)c2cccs2)cc1F [Compound 1k, 2-{1-Cyano-2-[3-fluoro-4-(2-methoxyethoxy)phenyl]-(E)-ethenyl}-thiophene] | > 20 µM | > 20 µM |  | 
COc1ccc(/C=C(\C#N)c2cccs2)cc1Br [Compound 1l, 2-[1-Cyano-2-(3-bromo-4-methoxyphenyl)-(E)-ethenyl]-thiophene] | 13.9 ± 1.16 µM |  |  | 
N#C/C(=C\c1cccc(O)c1)c1cccs1 [Compound 1m, 2-[1-Cyano-2-(3-hydroxyphenyl)-(E)-ethenyl]-thiophene] | > 20 µM | > 20 µM |  | 
COc1ccc(/C=C(\C#N)c2cccs2)cc1OCCCN1CCOCC1 [Compound 1n, 2-{1-Cyano-2-[4-methoxy-3-(3-morpholinopropoxy)phenyl]-(E)-ethenyl}-thiophene] | > 20 µM | > 20 µM |  | 
Cn1ccc2cc(/C=C(\C#N)c3cccs3)ccc21 [Compound 1o, 2-{1-Cyano-2-[N-methylindol-5-yl]-(E)-ethenyl}-thiophene] | > 20 µM | > 20 µM |  | 
COc1ccc(C=C(C#N)c2cccnc2)cc1O [Compound 2, reference compound] | 6.26 ± 1.18 µM |  |  | 
CNC(=O)c1cc(Oc2ccc(NC(=O)Nc3ccc(Cl)c(C(F)(F)F)c3)cc2)ccn1 [Sorafenib, sorafenib, reference compound] | 2.73 ± 0.76 µM | 2.5 ± 0.14 µM |  | tumor reduction vs PBS-treated controls (in words) [6]: pronounced tumor reductions; LDH release / unspecific cytotoxicity (in words) (HepG2 cells [4]): do not exert considerable unspecific cytotoxicity; caspase-3 activity (in words) [5]: dose-dependently induced caspase-3 activity; Pim-1 inhibitory activity (in words) (Pim-1): no Pim-1 inhibitory activity
